Holding throughout (format): cell-based
In data set [1] the test system is HepG2 cells. Put plainly: Resazurin reduction cytotoxicity assay, HepG2. The note with it: HepG2, 24 h. Here is the method:
(§1) HepG2 cells were acquired from the American Type Culture Collection (Manassas, VA, USA). Cells were cultured in 75 cm^2 flasks using DMEM—high glucose supplemented with a 10% heat inactivated FBS and 1% penicillin/streptomycin mixture, and maintained in a 5% CO2–95% air atmosphere, at 37 °C, until 80% confluence. Cells were routinely subcultured using trypsin-EDTA and, to avoid phenotypic alterations, used between passages 16 and 22. In all experiments, the cells were seeded at a density of 250,000 cells/cm^2 and used 24 h after seeding.
(§2) Neutral red uptake and resazurin reduction assays were performed after exposure of differentiated SH-SY5Y and HepG2 cells to the drugs under study. To obtain a concentration–response curve, a broad concentration range (0–2000 µM) was investigated, and cytotoxicity was evaluated 24 h after exposure in 96-well cell culture plates. As previously described, neutral red uptake assay is based on the incorporation of neutral red dye into the lysosomes of viable cells and the amount of dye incorporated represents the cells’ lysosomal functionality, and resazurin reduction assay is based on the irreversible reduction of resazurin dye to the fluorescent resorufin product by metabolically active cells.
(§3) Briefly, 24 h after being exposed to different concentrations of the compounds, differentiated SH-SY5Y cells were incubated with either neutral red (50 µg/mL) or resazurin (10 µg/mL) solutions for 90 min, at 37 °C, in a 5% CO2–95% air atmosphere. For HepG2 cells, 24 h after the exposure to the tested drugs, the cells were incubated with either neutral red (50 µg/mL) or resazurin (10 µg/mL) solutions for 45 and 60 min, respectively, at 37 °C, in a 5% CO2–95% air atmosphere.
(§4) In the neutral red uptake assay, at the end of the incubation period, the cell culture medium was removed and a solution of absolute ethyl alcohol/distilled water (1:1) with 5% acetic acid was added to extract the dye absorbed only by the viable cells. The absorbance was measured at 540 nm in a multi-well plate reader (PowerWaveX BioTek Instruments, Winooski, VT, USA). In the resazurin assay, at the end of the incubation period, the fluorescence was measured at 530 nm excitation and 590 nm emission wavelengths in a multi-well plate reader (PowerWaveX BioTek Instruments, Winooski, VT, USA).
(§5) The results were expressed as a percentage of control cells. At least four independent experiments were performed, in triplicate. For differentiated SH-SY5Y cells, the neutral red uptake assay was identified as the most sensitive assay and, therefore, used for the subsequent experiments. On the other hand, for HepG2 cells, the resazurin reduction assay was identified as the most sensitive assay and, therefore, used for the subsequent experiments.

Data set [2] deals with HepG2 cells. Put plainly: Neutral red uptake cytotoxicity assay, HepG2. Conditions: HepG2, 24 h. Here is the method: as §1, §2, §3, §4, §5
Data set [3] concerns HepG2 cells. Briefly: Effect of CYP inhibitors on drug cytotoxicity (resazurin reduction), HepG2. The note with it: HepG2, 24 h, drug concentrations as given in the source. Here is the method: Analogously to the studies performed in the neuronal model, the impact of the CYP-mediated metabolism on the cytotoxicity of the tested drugs was also evaluated, in HepG2 cells, 24 h after exposure to the drugs in the presence or absence of different CYP inhibitors: 1000 μM ABT, 10 μM quinidine or 1 μM ketoconazole.
(§6) CYP inhibition assay was used to evaluate the drugs’ potential to inhibit drug-metabolizing enzymes. Accordingly, SH-SY5Y and HepG2 cells were seeded in 96-well cell culture plates and pre-incubated with 1000 µM ABT—a non-isoform specific CYP450 inhibitor, 10 µM quinidine—a CYP2D6 inhibitor or 1 µM ketoconazole—a CYP3A4 inhibitor. After 1 h, the drugs (0–500 µM) were co-incubated with the inhibitors for 24 h, at 37 °C, in a 5% CO2–95% air atmosphere. The drugs’ cytotoxicity was then assessed through the neutral red uptake assay for differentiated SH-SY5Y cells, and through the resazurin reduction assay for HepG2 cells, and the results were expressed as percentage of control cells. At least four independent experiments were performed, in triplicate.
A general note: The colour change of resazurin is a common sign of viable cells or microbes.

The test system of data set [4] is differentiated SH-SY5Y cells. Briefly: Resazurin reduction cytotoxicity assay, differentiated SH-SY5Y. The note with it: 24 h. Here is the method:
SH-SY5Y cells were acquired from the American Type Culture Collection (Manassas, VA, USA). Cells were cultured in 25 cm^2 flasks using DMEM—high glucose supplemented with 10% heat-inactivated FBS, 1% MEM non-essential amino acids and 1% penicillin/streptomycin mixture, and maintained in a 5% CO2–95% air atmosphere, at 37 °C, until 80% confluence. Cells were routinely subcultured using trypsin-EDTA and, to avoid phenotypic alterations, were always used between passages 23 and 29. In all experiments, the cells were seeded at a density of 25,000 cells/cm^2. As previously described, to achieve a dopaminergic neuronal phenotype, the cells were seeded in a complete DMEM medium containing 10 μM retinoic acid and, after 3 days, 80 nM TPA was added to the cultures for another 3 days.
as §2, §3, §4, §5

Data set [5] deals with differentiated SH-SY5Y cells. Put plainly: Effect of CYP inhibitors on drug cytotoxicity (neutral red uptake), differentiated SH-SY5Y. Conditions: 24 h, drug concentrations as given in the source. Here is the method: Differentiated SH-SY5Y cells were incubated with the drugs in the presence or absence of different CYP inhibitors: 1000 μM ABT, a non-selective CYP inhibitor, 10 μM quinidine, a specific CYP2D6 inhibitor, or 10 μM ketoconazole, a specific CYP3A4 inhibitor.
as §6

Data set [6] relates to differentiated SH-SY5Y cells. Put plainly: Effect of MAO inhibitors on drug cytotoxicity (neutral red uptake), differentiated SH-SY5Y. Conditions: 24 h. Here is the method: MAO inhibition was used to elucidate the impact of MAO-A and MAO-B in the cytotoxicity of the tested drugs. […] The drugs’ cytotoxicity was then assessed through the neutral red uptake assay and the results were expressed as percentage of control cells. At least four independent experiments were performed, in triplicate.

Setting [7] is: maximum cell death of fitted curve.
Setting [8] is: Homo sapiens, cell death curves 0–2000 µM, read-out: EC50 (half-maximum-effect concentrations).

As for `COc1ccccc1CNCCc1cc(OC)c(OC)c(OC)c1` [Mescaline-NBOMe, 3,4,5-Trimethoxy-N-(2-methoxybenzyl)-β-phenethylamine], the entries for the “Bottom (baseline)” value (with HepG2 cells [1]; in the data set with HepG2 cells [2]; in data set [4]) were −0.3754, 2.853 and 2.774, respectively. In addition, the figures for the “Hill Slope” value (with HepG2 cells [1]; in the data set with HepG2 cells [2]; in data set [4]) were 3.411, 3.666 and 2.524, respectively. In addition, the entries for the “Top (maximal effect)” value (in the data set with HepG2 cells [1] (setting [7]); in the data set on HepG2 cells [2] (setting [7]); in data set [4] (setting [7])) were 87.43, 98.25 and 94.72, respectively. The EC50 was found to be 426 µM with HepG2 cells [1] (setting [8]); 476 µM in the data set on HepG2 cells [2] (setting [8]); 677 µM in data set [4] (Homo sapiens, cell death curves 0–1500 µM, read-out: EC50 (half-maximum-effect concentration)). For the same compound, the “change of resazurin reduction with ketoconazole vs drug alone” value with HepG2 cells [3] (1 μM ketoconazole) is “no significant changes in resazurin reduction”. Also, the “change of resazurin reduction with quinidine vs drug alone” value in the data set with HepG2 cells [3] (10 μM quinidine) is on record as “no significant changes in resazurin reduction”. In addition, the “change of resazurin reduction with ABT vs drug alone” value in the data set on HepG2 cells [3] (1000 μM ABT) is given as “small but significant decrease in resazurin reduction”. Moreover, the “change of neutral red uptake with ketoconazole vs drug alone” value in data set [5] (10 μM ketoconazole (CYP3A4 inhibitor)) was “small but significant decrease in neutral red uptake”. Also, the “change of neutral red uptake with quinidine vs drug alone” value in data set [5] (10 μM quinidine (CYP2D6 inhibitor)) is recorded as “significant decrease in the neutral red uptake”. Besides, the “change of neutral red uptake with ABT vs drug alone” value in data set [5] (1000 μM ABT (non-selective CYP inhibitor)) is “significant decrease in neutral red uptake”. Also, the “change of drug cytotoxicity with clorgyline (neutral red uptake)” value in data set [6] (1 µM clorgyline (MAO-A inhibitor), drug 50-250 µM) is on record as “significantly increased the cytotoxicity”; in data set [6] (1 µM clorgyline, 500 µM drug concentration), “significant increase in cell viability”. Also, the “change of drug cytotoxicity with rasagiline (neutral red uptake)” value in data set [6] (1 µM rasagiline (MAO-B inhibitor), drug concentrations as given in the source) is reported as “significantly increased the cytotoxicity”.

For the origin of these results see article PMC10458253, “Unraveling the In Vitro Toxicity Profile of Psychedelic 2C Phenethylamines and Their N-Benzylphenethylamine (NBOMe) Analogues” (Pharmaceuticals, 2023).
